Holding throughout (assay): NCI tumour cell line growth inhibition, 48 h
Experiment [1] concerns HOP-62 NSCLC.
In experiment [2] the test system is IGROV1 ovarian.
The test system of experiment [3] is NCI/ADR-RES ovarian.
For experiment [4], the system named is OVCAR-5 ovarian.
Experiment [5] relates to SF-268 CNS.
Experiment [6] has as its system SF-295 CNS.
For experiment [7], the system named is SK-MEL-2 melanoma.
Experiment [8] has as its system SNB-19 CNS.
Experiment [9] concerns SNB-75 CNS.
In experiment [10] the test system is SW-620 colon.

Consider 25 compounds from PubChem BioAssay (NCI).

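The compound was tested at five concentrations on cells cultured in 96-well plates, with a 48-hour exposure period. GI50 = concentration required for 50% inhibition of growth. Definition used: TGI = concentration required for complete inhibition of growth.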

In the case of `CC1CN=C(c2ccc(-c3nc(-c4ccc(C5=NCC(C)N5)cc4)nc(N(C)C)n3)cc2)N1` (stereo not given), the TGI was found to be 5.35 µM in experiment [1]; 18 µM in experiment [2]; 56.4 µM in experiment [3]; 10.8 µM in [4]; 6.53 µM in experiment [5]; 15.8 µM in [6]. Moreover, the TGI in [7] was 4.05 µM; in experiment [8], 6.73 µM; in [9], 4.29 µM; in [10] it was 5.56 µM.
For `CC(C)(C)C(=O)N1CCN(C=O)C1=S`, the TGI in [1], in experiment [2], in [3], in [4], in experiment [5] and in experiment [6] was above 100 µM each time. Moreover, the TGI in experiment [7] is above 100 µM; in experiment [8], above 100 µM; in experiment [9], 90.6 µM; in experiment [10], above 100 µM.
Consider `Cc1cn(CCOCCOC(=O)NC(CCCNC(N)=O)C(=O)O)c(=O)[nH]c1=O` (stereo not given), for which the TGI in experiment [1], in experiment [2], in [3], in experiment [4], in experiment [5] and in [6] was above 100 µM throughout. Further, the TGI in [7], in [8], in [9] and in experiment [10] was above 100 µM each time.
In the case of `CC1=CC[C@](C)(O)[C@@]2(C)CC[C@H]3C(=C(C)C)C(=O)C[C@]3(C)C[C@H]12`, the TGI in [1], in [2], in [3], in experiment [4], in experiment [5] and in experiment [6] was above 50 µM in each case. For the same compound, the TGI in experiment [7], in experiment [8], in [9] and in experiment [10] was above 50 µM each time.
In the case of `COC(=O)[C@](C)(Cc1ccccc1)NC(=O)[C@@H](C)N1[C@@H](c2ccccc2)COC1(C)C`, the TGI in experiment [1], in experiment [2], in experiment [3], in [4], in [5] and in experiment [6] was above 100 µM each time. In addition, the TGI was above 100 µM in [7], above 100 µM in experiment [8], 75.8 µM in [9] and above 100 µM in experiment [10].
On to `CS(=O)(=O)[O-].CS(=O)(=O)[O-].NC1CCCCC1N.[Pt+4]` (stereo not given), for which the GI50 is above 100 µM in [1]; above 69.4 µM in [2]; above 55.2 µM in experiment [3]; above 100 µM in [4]; above 65.9 µM in experiment [5]; above 100 µM in [6]. Further, the GI50 in experiment [7] was above 100 µM; in experiment [8], above 100 µM; in experiment [9], above 68 µM; in experiment [10] it was 13 µM. Moreover, the TGI in [1], in [2], in [3], in experiment [4], in experiment [5] and in experiment [6] was above 100 µM in each case. The TGI in experiment [7], in experiment [8], in [9] and in experiment [10] was above 100 µM in each case.
Take `COc1cc2oc(-c3ccc4c(c3)OCO4)c(OC)c(=O)c2c(O)c1OC`: the TGI in experiment [1], in experiment [2], in experiment [3], in [4], in experiment [5] and in experiment [6] was above 50 µM each time. Besides, the TGI in [7], in experiment [8], in experiment [9] and in experiment [10] was above 50 µM each time.
`O=C1C(Cl)=C(c2ccc([N+](=O)[O-])cc2)C(=O)c2c(O)cccc21`: the TGI in [1] is 14.8 µM; in experiment [2], 4.34 µM; in [3], 17.1 µM; in [4], 5.98 µM; in experiment [5], 22.4 µM; in [6] it was 8.19 µM. Further, the TGI in experiment [7] was determined as 2.22 µM; in [8], 5.68 µM; in experiment [9], 7.13 µM; in experiment [10], 3.66 µM.
With `COc1ccc(NC(=O)CC(=O)N2N=C(N(c3ccccc3)c3ccccc3)CC2c2ccccc2)cc1` (stereo not given), the TGI in [1], in experiment [2], in experiment [3], in [4], in experiment [5] and in [6] was above 100 µM throughout. The TGI in [7], in experiment [8], in experiment [9] and in [10] was above 100 µM each time.
For `CCOC(=O)Cc1csc(N=Nc2c(O)[nH]c3ccccc23)n1`, the TGI in experiment [1], in experiment [2], in experiment [3], in experiment [4], in experiment [5] and in experiment [6] was above 100 µM in each case. In addition, the TGI was above 100 µM in experiment [7], above 100 µM in experiment [8], 96.6 µM in experiment [9] and above 100 µM in experiment [10].
For `COc1cc2c(cc1O)CCN(C)[C@H]2Cc1ccc(Oc2c(O)c(OC)cc3c2C[C@H]2c4c(c(OC)c(OC)c(OC)c4-3)CCN2C)cc1`, the TGI in experiment [1] stood at 11.8 µM; in experiment [2], 10.7 µM; in experiment [3], 14.1 µM; in [4], 13.2 µM; in experiment [5], 11.5 µM; in experiment [6], 11.3 µM. In addition, the TGI in experiment [7] worked out at 12.6 µM; in experiment [8], 12.5 µM; in [9], 9.61 µM; in [10], 10 µM.
With `Cc1cc2nc(-c3c(N)ncc(C#N)c3-c3ccc(Cl)cc3)[nH]c2cc1C`, the GI50 is 6.36 µM in [1]; 18.7 µM in experiment [2]; 15.7 µM in experiment [3]; 14.7 µM in experiment [4]; 19.8 µM in experiment [5]; 10 µM in experiment [6]. Also, the GI50 was 20.4 µM in experiment [7], 19.5 µM in experiment [8], 12.9 µM in experiment [9] and 32.4 µM in experiment [10]. Also, the TGI in [1] was 21.7 µM; in [2] it was above 100 µM; in experiment [3] it was above 100 µM; in experiment [4], above 100 µM; in experiment [5] it was 84.2 µM; in experiment [6], 27.5 µM. The TGI was above 100 µM in experiment [7], 75.6 µM in experiment [8], 32.4 µM in experiment [9] and above 100 µM in [10].
`COC(=O)/C=C1\C(=O)C=C2[C@@H]3C[C@H]4C[C@H](CC[C@@]4(C)N21)C3(C)NC(C)=O` (stereo not given in full): the TGI in experiment [1] is 60.7 µM; in experiment [2], 40.7 µM; in [3], above 77 µM; in experiment [4], 35.7 µM; in experiment [5], 22.9 µM; in [6], 44.1 µM. Further, the TGI in experiment [7] is 38.9 µM; in experiment [8] it was above 56.7 µM; in experiment [9] it was 27.4 µM; in [10], 24.7 µM.
With `C=CCCCCn1c2ccccc2c2c(C)c3cnccc3c(C)c21`, the TGI worked out at 35.9 µM in experiment [1]; 46.4 µM in experiment [2]; 33.7 µM in [3]; 40.4 µM in experiment [4]; 77.8 µM in [5]; 26 µM in experiment [6]. The TGI amounted to 47.3 µM in experiment [7], 37.9 µM in experiment [8], 53.7 µM in experiment [9] and 73.6 µM in experiment [10].
On to `COC1(OC)C=CC(=O)C=C1`, for which the TGI in experiment [1] is 24.5 µM; in experiment [2], 4.77 µM; in experiment [3], 13.7 µM; in [4] it was above 41.6 µM; in experiment [5], 16.7 µM; in experiment [6], 23.9 µM. Moreover, the TGI was found to be 21.5 µM in experiment [7], 30.2 µM in [8], 26.9 µM in experiment [9] and 3.12 µM in [10].
On to `O=[N+]([O-])c1cc(F)ccc1Sc1ccccc1`, for which the TGI in experiment [1], in experiment [2], in experiment [3], in experiment [4], in experiment [5] and in [6] was above 10 µM each time. Also, the TGI in [7], in [8], in experiment [9] and in [10] was above 10 µM throughout.
`COC(=O)c1cc(C)ccc1C1CN=NC12Cc1c(C)cc(C)cc1C2=O` (stereo not given): the TGI in experiment [1] is above 100 µM; in experiment [2], above 100 µM; in [3] it was 46.8 µM; in experiment [4] it was above 100 µM; in experiment [5], 98.9 µM; in experiment [6], 97.4 µM. For the same compound, the TGI is 33.1 µM in experiment [7], above 100 µM in experiment [8], 66.8 µM in [9] and above 100 µM in experiment [10].
As for `COc1cc(S(=O)(=O)Nc2ccc(-c3csc(/N=C\c4ccccc4)n3)cc2)ccc1Cl`, the TGI in [1], in experiment [2], in experiment [3], in experiment [4], in experiment [5] and in [6] was above 100 µM throughout. In addition, the TGI in [7] is 60.6 µM; in [8], above 100 µM; in [9], above 100 µM; in experiment [10], above 100 µM.
For the compound `NC(=S)N/N=C1\CCCC1C(O)(C(F)(F)Cl)C(F)(F)Cl` (stereo not given), the TGI in experiment [1], in [2], in experiment [3], in experiment [4], in [5] and in [6] was above 10 µM in each case. The TGI in [7], in [8], in experiment [9] and in experiment [10] was above 10 µM in each case.
Regarding `CCN(CC)C1Oc2cc3c(cc2C(c2cc(OC)c(OC)c(OC)c2)C1C)OCO3` (stereo not given), the TGI was 12.9 µM in experiment [1]; above 63.2 µM in [2]; 0.771 µM in experiment [3]; above 47.8 µM in experiment [4]; above 58.2 µM in [5]; 10 µM in [6]. Moreover, the TGI in experiment [7] is 11.7 µM; in experiment [8], above 53 µM; in experiment [9] it was above 69.9 µM; in experiment [10], above 63.1 µM.
On to `O=c1[nH]c2cc([N+](=O)[O-])c(Nc3c4ccccc4nc4ccccc34)c([N+](=O)[O-])c2[nH]1`, for which the TGI in [1] is 11.6 µM; in experiment [2] it was 3.04 µM; in [3], 10.9 µM; in [4] it was 7.08 µM; in experiment [5], 10.5 µM; in [6], 11.2 µM. In addition, the TGI in experiment [7] was found to be 8.6 µM; in [8] it was 26.7 µM; in experiment [9], 13.5 µM; in [10], 14.7 µM.
In the case of `NNC(=O)Cn1ccnn1`, the TGI in experiment [1], in experiment [2], in experiment [3], in experiment [4], in experiment [5] and in experiment [6] was above 100 µM each time. The TGI in experiment [7], in experiment [8], in experiment [9] and in experiment [10] was above 100 µM throughout.
In the case of `CC(=O)Nc1ccc(/C=C2/NC(=S)N(/C=C3\C(=O)Oc4ccccc4C3=O)C2=O)cc1`, the TGI in experiment [1], in experiment [2], in experiment [3], in [4], in experiment [5] and in [6] was above 100 µM in each case. The TGI is above 100 µM in [7], above 100 µM in experiment [8], 63.1 µM in experiment [9] and above 100 µM in experiment [10].
As to `Cc1ccc(NC2=N/C(=C/c3ccco3)C(Cl)=N2)cc1`, the TGI in experiment [1], in experiment [2], in experiment [3], in [4], in experiment [5] and in experiment [6] was above 100 µM throughout. The TGI in [7], in experiment [8], in experiment [9] and in [10] was above 100 µM each time.
`O=C(O)CCSC1=NCCN1`: the TGI in [1], in [2], in [3], in experiment [4], in experiment [5] and in [6] was above 100 µM throughout. The TGI in [7], in experiment [8], in [9] and in [10] was above 100 µM in each case.
